According to patent US8026208B2, “Peptide tyrosinase inhibitors and uses thereof” (The Board of Trustees of the Leland Stanford Junior …, priority 2007, dated 2011):
Each block holds one compound with its values, some of them ahead of it. No end group written: not given here.

Tests used:
[1] = molecular target: tyrosinase; conditions: read-out: published IC50; cited from earlier work
[2] = tested on: Human melanocytes; test: Melanin content measurement in melanocytes; format: cell-based; conditions: 10 μM (peptide: similar concentration), 7 days
Procedure: (§1) Primary human melanocytes were kindly obtained from Dr. Todd Ridky in the department of dermatology, Stanford University. Cells were cultured in Medium 254 (Cascade Biologics) supplemented with Human Melanocyte Growth Supplement (HMGS, Cascade Biologics). They were grown in a humidified atmosphere with 5% CO2 at 37° C. Cell plating densities were arranged that those cells were in log phase of growth for the duration of incubation with test samples. Subcultures of cells were plated at a density of 4×10^4 cells/cm^2. Approximately 24 h later, fresh medium and test samples were added. Cells were harvested 7 d after test samples addition, replaced with fresh medium and test samples every two days.
Human melanocytes were cultured in 6-well plates and treated with individual test samples for 7 d. After washes in PBS, cells were detached by short incubation in trypsin/EDTA (0.25%/0.1% in PBS). An aliquot was used for cell count. […] Melanin concentrations were calculated by comparison of the OD at 475 nm of unknown samples with a standard curve obtained with synthetic melanin.
To provide more direct evidence that RA peptide inhibits melanogenesis, its effects on melanin production in melanocytes was studied. The contents of melanin in melanocytes treated with no addition, RA peptide or HQ for 7 days were determined with a spectrophotometer and compared with a melanin standard curve. […]

[3] = molecular target: T1, cellular tyrosinase activity of melanocytes (Homo sapiens, UniProt P14679); test: Assay of cellular tyrosinase activity with L-DOPA as substrate; format: cell-based; conditions: 7 d treatment
T1 construct: Primary human melanocytes were kindly obtained from Dr. Todd Ridky; endogenous in cells; host or cells: primary human melanocytes (passage 3)
T1 sequence (P14679 19-529): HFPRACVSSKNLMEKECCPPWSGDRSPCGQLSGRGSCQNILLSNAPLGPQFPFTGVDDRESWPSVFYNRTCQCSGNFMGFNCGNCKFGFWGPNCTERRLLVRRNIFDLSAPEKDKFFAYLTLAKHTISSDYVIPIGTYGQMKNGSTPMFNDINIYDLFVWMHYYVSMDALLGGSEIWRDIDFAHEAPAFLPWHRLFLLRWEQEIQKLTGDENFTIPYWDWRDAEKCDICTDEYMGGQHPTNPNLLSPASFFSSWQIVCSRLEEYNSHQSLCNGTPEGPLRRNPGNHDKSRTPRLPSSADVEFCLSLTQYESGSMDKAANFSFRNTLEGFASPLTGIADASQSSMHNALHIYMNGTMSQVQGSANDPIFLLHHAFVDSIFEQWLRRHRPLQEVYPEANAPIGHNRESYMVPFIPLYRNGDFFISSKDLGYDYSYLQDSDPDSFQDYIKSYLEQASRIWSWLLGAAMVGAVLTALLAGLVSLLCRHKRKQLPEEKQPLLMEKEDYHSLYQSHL
Procedure: as §1
Human melanocytes were cultured in 6-well plates. After treatment with individual test samples for 7 d, the cells were washed with phosphate-buffered saline (PBS) and lysed with phosphate buffer, pH 6.8, containing 1% Triton X-100. After sonication, lysates were clarified by centrifugation at 10000 g for 10 min. After determination of protein content with a Bio-Rad protein assay kit, lysates were added to 96 well culture plate containing equal amounts of protein (40 μg), and adjusted with lysis buffer to reach 150 μl in each well. 75 μl of 10 mM L-DOPA dissolved in lysis buffer was added to each well. The culture plate was incubated at 37° C. for 30 min, and then read with the spectrophotometer at 475 nm.
Tyrosinase inhibitory activity was calculated with the following formula: tyrosinase inhibition (%)=[1−(O.D.475 of sample/O.D.475 of control)]×100%.
We also examined the inhibitory action of RA peptide on cellular tyrosinase activity of melanocytes, using L-DOPA as substrate. After centrifugation and protein calculation, certain volume of supernatant for each sample was transferred to 96 well culture plate by compensating a certain protein content in each well, and adjusted the volume of each well to 150 μl with 0.067M of phosphate buffer (pH 6.8). 75 μl of 10 mM L-DOPA dissolved in phosphate buffer (pH 6.8) was added to each well. The culture plate was incubated at 37° C. for 30 min, and then read with the spectrophotometer at 475 nm.

[4] = tested on: Primary human melanocytes; format: cell-based; conditions: 24 h, 100 µM
Procedure: as §1
Cell viability was determined using WST-1 Cell Proliferation Kit (Roche). Cells were plated at 1×10^5/well (24-well plates). Twenty-four hours after plating, test samples were added and cultures were incubated for an additional 7 d. At the end of the treatment period, 50 μl WST-1 was added to each well. The plates were placed at 37° C. for 4 h in the dark and the absorbance at 450 nm was read using microplate. Usually, 3 replicate wells were measured for each group to be tested. Wells containing medium but no cells served as controls. Cell viability was calculated according to the equation: cell viability=absorbance (sample tested)/absorbance (medium only)×100%. Assay of Cellular Tyrosinase Activity […]

[5] = tested on: Primary human melanocytes; test: Melanocyte proliferation rate; format: cell-based; conditions: up to 10 μM
Procedure: as §1
To exclude the possibility that the inhibitory effects of RA peptide on melanogenesis might be caused by the inhibition of cell growth, we compared the number of cells grown in the presence and absence of test samples.

[6] = tested on: Mushroom tyrosinase; test: Tyrosinase inhibition at single concentration (melanin synthesis evaluation); format: biochemical; conditions: for considered effective in these assays: mushroom tyrosinase and B-16 assays, SF 8 mM, PLG 3 mM
Procedure: Peptides SF, VL, and PLG-OH were tested, along with controls of kojic acid, a known tyrosinase inhibitor, and licorice extracts, a known tyrosinase inhibitor (See J. Agric. Food Chem., 51 (5), 1201-1207, 2003). Tyrosinase inhibition was measured using mushroom tyrosinase (Sigma Aldrich cat # T3824) and L-tyrosine (Sigma Aldrich cat # T8566) in an assay buffer consisting of phosphate buffer (1.0M, pH 6.8) and 5%, and absolute water. The assay buffer, with test sample concentrations and tyrosinase, was incubated in the dark at room temperature for one hour and absorption was read.

[7] = tested on: facial pigmentation of patients with recalcitrant melasma; test: Clinical study in patients with recalcitrant melasma; format: in vivo, human; conditions: peptide in liposomes at 1%
Description: Patients with recalcitrant melasma (those that failed over the counter products, or HQ 4% for six months, or Tri-luma® Cream for six months) were randomized and blinded to two treatment groups (vehicle and peptide). Patients applied each product twice per day followed by a sunscreen with a sun protection factor of 30 Qam. Patients were then asked to rate the percentage improvement in their facial pigmentation using a nominal scale of 0-100, with 0 corresponding to no change and 100 corresponding to complete resolution. The results are shown in FIG. 3, in which the PLG-OH peptide is shown to be rated as 40-50% improvement, where vehicle caused no improvement. The peptide was formulated in liposomes at 1%, and the control was the liposomes alone.

[8] = molecular target: Mushroom tyrosinase; test: Mushroom tyrosinase inhibition, colorimetric detection of dopachrome (IC50, kinetics); format: biochemical; conditions: L-tyrosine substrate, pH 6.8, 37° C., absorbance 475 nm at 30 min
Procedure: Mushroom tyrosinase, L-tyrosine and other chemicals for the enzymatic reaction were obtained from Sigma-Aldrich. […] It is understood that research grade reagents were used for convenience, and it is preferred that the peptides be prepared to pharmaceutical grade purity, greater than 90%, preferably greater than 99% pure. Inhibition of tyrosinase by experimental peptides was determined by calorimetric detection of dopachrome, the reaction product of the substrate L-tyrosine. Mushroom tyrosinase, L-tyrosine, and a potassium phosphate buffer (pH 6.8) were added to 96-well plates containing short sequence peptides dissolved in 5% DMSO and incubated at 37° C. The absorbance at 475 nm was measured using a BIO-TEK plate reader 30 min after reaction initiation. Each experiment was performed in triplicate on 3 separate occasions. The protocol is described in further detail in Piao et al., “Mushroom Tyrosinase Inhibition Activity of Some Chromones,” Chem. Pharm. Bull. 56(3): 309-311 (2002), and in Pomerants, J. Biol. Chem 238:2351-2357 (1963). Enzyme kinetics were calculated using the Michaelis-Menton equation by observing changes in reaction velocity accompanying substrate concentrations of 0.5, 1, 2, and 4 mM L-tyrosine. Once initial reaction velocities were obtained, Lineweaver-Burke plots were created to calculate Km, Vmax, and to determine the mode of enzymatic inhibition.

[9] = tested on: B16-F10 mouse melanoma cells; test: Cell viability by MTT assay in B-16 pigmentation assay; format: cell-based
Procedure: (§2) The B-16 pigmentation assay used B16-F10 mouse melanoma cells (ATCC CRL-6475) grown in DMEM, DMEM without phenol red, FBS, antibiotics, L-glutamine and other standard components. Cells were counted in a Packard Spectracount (microplate spectrophotometer) filtered at 540 nm and 570 nm. The cells were cultured with growth medium and incubated for 24 hrs. at 37° C. and 10% CO2. Cells were treated with 200 μl of growth medium containing test active ingredient and incubated at 37° C. and 10% CO2. After 7 days, the cells were read at 540 nm using the Packard microplate reader. Cell viability was assessed using the MTT assay (Mosmann T. Rapid colorimetric assay for cellular growth and survival: application to proliferation and cytotoxicity assays. J Immunol Methods. 1983 Dec. 16; 65(1-2):55-63), which is used to determine the number of living cells in a sample.

[10] = tested on: B16-F10 mouse melanoma cells; test: B-16 pigmentation assay; format: cell-based; conditions: concentration tested 8 mM, 7 days
Procedure: as §2

[11] = Solubility in tyrosinase assay buffer; format: physicochemical; conditions: 8 mM
[12] = Stability testing of 1% peptide solutions by HPLC/MS; conditions: 1% solution, sealed tube, ambient, HPLC or MS, 4 months
Procedure: A sixth peptide, VLLK (SEQ ID NO: 3), was used as inner standard for quantitative evaluation of other peptide stability.
HPLC/MS: A 1% solution was prepared for each peptide and sealed in a tube, which was kept in ambient environment. High Performance Liquid Chromatography (HPLC) and Mass Spectroscopy (MS) were tested periodically at an approximate time range of 30 days. A fresh 1% VLLK (SEQ ID NO: 3) solution used as inner standard was prepared on the same day of each test. The amount of each peptide was determined by its peak area relative to that of VLLK (SEQ ID NO: 3).

Compound: Oc1ccc(O)cc1 [HQ, Hydroquinone]
- IC50 [1]: ~700 µM
- melanin content [2]: slightly reduced
- reduction of cellular tyrosinase activity ([3]; 10 μM): 28.8%
- cell death [4]: 100%
- inhibitory effects on melanocyte proliferation rates [5]: did not show inhibitory effects

- % Tyrosinase inhibition ([6]; concentration tested 0.25%): 94%
Compound: O=c1cc(CO)occ1O [Kojic Acid, 5-hydroxy-2-(hydroxymethyl)-4-pyrone, reference compound]

- % Tyrosinase inhibition ([6]; concentration tested 3 mM): 6%
- IC50 [8]: 2730 µM
Compound: PLG-OH [tripeptide PLG with native amino and carboxy termini, distinguished from PLG-NH2]
- side effects (erythema, scaling, contact dermatitis reaction, comedone formation) ([7]; 4-month exposure): no side effects
- percentage improvement in facial pigmentation ([7]; patient-rated scale 0-100, applied twice per day): 40-50%
- considered effective in these assays [6]: Neither SF peptide nor PLG was considered effective
- cytotoxicity (printed in the % Depigmentation column) ([9]; concentration tested 3 mM): cyto-toxic

- reduction of cellular tyrosinase activity ([3]; 1 μM): 1.2%
- reduction of cellular tyrosinase activity ([3]; 10 μM): 15.6%
- reduction of cellular tyrosinase activity ([3]; 100 μM): 21.1%
Compound: RADSRADC [RA peptide, RADSRADC]
- Viability ([9]; 150, 300 and 450 uM): not significantly affected

- solubility in buffer [11]: ND (insoluble
- degradation [12]: did not show degradation
Compound: SFLLRN [SF peptide]
- % Depigmentation (B-16 Assay) [10]: 0%
- considered effective in these assays [6]: Neither SF peptide nor PLG was considered effective

- IC50 (result in words) [8]: no effect
Compound: VLLK [VL peptide, reference compound]
